Results: US6521659B2, “Compositions containing a substituted indolealkanoic acid and an angiotensin converting enzyme inhibitor” (Institute for Pharmaceutical Discovery, LLC, priority 2000, dated 2003)

The compounds below were run against human aldose reductase (hALR2) (Homo sapiens, UniProt P15121) (assay: Inhibition of human aldose reductase (hALR2), methods similar to Butera et al.). Conditions: not given.
Assay type: biochemical
Procedure: Representative compounds of Formula Iwere tested for their potency, selectivity and efficacy as inhibitors of human aldose reductase.
Since high potency of test compounds as inhibitors of aldose reductase is desirable, low hALR2 IC50 values are sought. On the other hand, high potency of test compounds as inhibitors of aldehyde reductase is undesirable, and high ALR1 IC50s values are sought. Accordingly, the hALR1/hALR2 ratio is used to determine the selectivity of the test compounds. The importance of this selectivity is Described in Kotani, et al., J. Med. Chem. 40: 684, 1997.

Compound	IC50 [nM]
Cc1c(Cc2nc3c(F)c(F)cc(F)c3s2)c2ccccc2n1CC(=O)O [Example 1, 2-methyl-3-(4,5,7-trifluorobenzothiazol-2-yl)methyl-indole-N-acetic Acid]	8
O=C(O)Cn1cc(Cc2nc3c(F)c(F)cc(F)c3s2)c2cc(Cl)ccc21 [Example 2, 5-chloro-3-(4,5,7-Trifluorobenzothiazol-2-yl)methyl-indole-N-acetic Acid]	10
Cc1ccc2c(c1)c(Cc1nc3c(F)c(F)cc(F)c3s1)cn2CC(=O)O [Example 4, 5-methyl-3-(4,5,7-trifluorobenzothiazol-2-yl)methyl-indole-N-acetic Acid]	8
Cc1cccc2c(Cc3nc4c(F)c(F)cc(F)c4s3)cn(CC(=O)O)c12 [Example 5, 7-methyl-3-(4,5,7-trifluorobenzothiazol-2-yl)methyl-indole-N-acetic Acid]	6
O=C(O)Cn1cc(Cc2nc3c(F)c(F)cc(F)c3s2)c2ccc(Cl)cc21 [Example 6, 6-chloro-3-(4,5,7-trifluorobenzothiazol-2-yl)methyl-indole-N-acetic Acid]	8
O=C(O)Cn1cc(Cc2nc3c(F)c(F)cc(F)c3s2)c2cc(OCc3ccccc3)ccc21 [Example 7, 5-benzyloxy-3-(4,5,7-trifluorobenzothiazol-2-yl)methyl-indole-N-acetic Acid]	12
O=C(O)Cn1cc(Cc2nc3c(F)c(F)cc(F)c3s2)c2ccc(F)cc21 [Example 8, 6-fluoro-3-(4,5,7-trifluorobenzothiazol-2-yl)methyl-indole-N-acetic Acid]	7
O=C(O)Cn1cc(Cc2nc3c(F)c(F)cc(F)c3s2)c2cc(F)ccc21 [Example 9, 5-fluoro-3-(4,5,7-trifluorobenzothiazol-2-yl)methyl-indole-N-acetic Acid]	11
Cc1ccc2c(Cc3nc4c(F)c(F)cc(F)c4s3)cn(CC(=O)O)c2c1 [Example 10, 6-methyl-3-(4,5,7-trifluorobenzothiazol-2-yl)methyl-indole-N-acetic Acid]	5
O=C(O)Cn1cc(Cc2nc3cc(C(F)(F)F)ccc3s2)c2ccccc21 [Example 11, 3-(5-trifluoromethylbenzothiazol-2-yl)methyl-indole-N-acetic Acid]	99
O=C(O)Cn1c(-c2ccccc2)c(Cc2nc3c(F)c(F)cc(F)c3s2)c2ccccc21 [Example 14, 2-phenyl-3-(4,5,7-trifluorobenzothiazol-2-yl)methyl-indole-N-acetic Acid]	101
O=C(O)Cn1cc(Cc2nc3c(F)c(F)cc(F)c3s2)c2cc(-c3ccccc3)ccc21 [Example 15, 5-phenyl-3-(4,5,7-trifluorobenzothiazol-2-yl)methyl-indole-N-acetic acid]	53
O=C(O)Cn1cc(Cc2nc3c(F)c(F)cc(F)c3s2)c2cc(N3CCOCC3)ccc21 [Example 17, 5-morpholino-3-(4,5.7-trifluorobenzothiazol-2-yl)methyl-indole-N-acetic Acid]	8
O=C(O)Cn1cc(Cc2nc3c(F)c(F)cc(F)c3s2)c2cc(Oc3ccccc3)ccc21 [Example 19, 5-phenoxy-3-(4,5,7-trifluorobenzothiazol-2-yl)methyl-indole-N-acetic Acid]	30
O=C(O)Cn1cc(Cc2nc3c(F)c(F)cc(F)c3s2)c2cccc(F)c21 [Example 20, 7-fluoro-3-(4,5,7-trifluorobenzothiazol-2-yl)methyl-indole-N-acetic Acid]	7
O=C(O)Cn1cc(Cc2nc3c(F)c(F)cc(F)c3s2)c2cccc(Br)c21 [Example 21, 7-bromo-3-(4,5,7-trifluorobenzothiazol-2-yl)methyl-indole-N-acetic Acid]	14
O=C(O)Cn1cc(Cc2nc3c(F)c(F)cc(F)c3s2)c2cccc(Cl)c21 [Example 22, 7-chloro-3-(4,5,7-trifluorobenzothiazol-2-yl)methyl-indole-N-acetic Acid]	9.1

Same assay, conditions: ratio of hALR1 IC50 to hALR2 IC50 (selectivity)

HALR1/hALR2	Compound
4	3-[6-Fluorbenzothiazole-2-yl]methyl-indole-N-acetic Acid [Example 24]
